US11203577B2, “Sulfonyl-structure-containing triazinone derivatives, their preparation methods and their uses in insect killing and/or bacterium killing” (Nankai University, priority 2017, dated 2021)

Key:
Cucumber fusarium wilt = assay: In vitro fungicidal activity, PDA colony diameter; format: cell-based; conditions: 96 h, 50 mg/kg, inhibition of colony diameter, read-out: Fungicidal activity (%) Cucumber fusarium wilt
[1] = system: Cercospora brown spot of peanut; assay: In vitro fungicidal activity, PDA colony diameter; format: cell-based; conditions: 96 h, 50 mg/kg, inhibition of colony diameter, read-out: Fungicidal activity (%) Cercospora brown spot of peanut
Tomato early blight = assay: In vitro fungicidal activity, PDA colony diameter; format: cell-based, Alternaria solani; conditions: 50 mg/kg, inhibition of colony diameter; read-out: Fungicidal activity (%) Tomato early blight
Wheat head blight = assay: whole plant or invertebrate; format: cell-based; conditions: Triticum aestivum, read-out: Fungicidal activity (%) Wheat head blight
Rice bakanae disease = assay: In vitro fungicidal activity, PDA colony diameter; format: cell-based; conditions: 50 mg/kg, inhibition of colony diameter; read-out: Fungicidal activity (%) Rice bakanae disease
Sclerotinia rot of colza = assay: In vitro fungicidal activity, PDA colony diameter; format: cell-based; conditions: 96 h, 50 mg/kg, inhibition of colony diameter, read-out: Fungicidal activity (%) Sclerotinia rot of colza
Apple ring rot = assay: In vitro fungicidal activity, PDA colony diameter; format: cell-based; conditions: inhibition of colony diameter
Protocol: (§1) Here, the test is described in an example of Alternaria solani; it can be replaced by other fungi.
(§2) In vitro testing method: Alternaria solani is inoculated to a PDA culture medium and cultured for 7 days, a fungus dish with a diameter of […] is prepared on the periphery of the colony with a punch and inoculated to a PDA culture medium that contains pesticide at a concentration of 50 mg/kg and a PDA culture medium that doesn't contain the pesticide, and are cultured for 4 days respectively; then, the colony diameters are measured, and the inhibition percentages of the pesticides are calculated by comparing with the control sample.

[2] = system: Capsicum phytophthora blight; assay: In vitro fungicidal activity, PDA colony diameter; format: cell-based; conditions: 96 h
Protocol: as §1, §2

Wheat sheath blight = assay: In vitro fungicidal activity, PDA colony diameter; format: cell-based; conditions: 50 mg/kg, inhibition of colony diameter; read-out: Fungicidal activity (%) Wheat sheath blight
[3] = system: Corn southern leaf blight; assay: In vitro fungicidal activity, PDA colony diameter; format: cell-based; conditions: 50 mg/kg, inhibition of colony diameter; read-out: Fungicidal activity (%) Corn southern leaf blight
Watermelon anthracnose = assay: In vitro fungicidal activity, PDA colony diameter; format: cell-based; conditions: 50 mg/kg, inhibition of colony diameter; read-out: Fungicidal activity (%) Watermelon anthracnose
Potato late blight = assay: microbe, parasite or virus in culture; format: cell-based; conditions: Phytophthora infestans, 96 h, read-out: Fungicidal activity (%) Potato late blight
Rice sheath blight = assay: In vitro fungicidal activity, PDA colony diameter; format: cell-based; conditions: 50 mg/kg, inhibition of colony diameter; read-out: Fungicidal activity (%) Rice sheath blight
Armyworms = assay: Test of insecticidal activity against armyworms (leaf immersion); conditions: 3-4 days
Maize borers = assay: Test of insecticidal activity against maize borers (leaf immersion); conditions: read-out: Mortalities (%) Maize borers
[4] = system: mosquito larvae (Culer pipiens pallens); assay: Test of insecticidal activity against mosquito larvae (checked after 24 h); conditions: for insecticidal activity against mosquito larvae: in vivo
Protocol: Method of testing against mosquito larvae: the tested mosquito larvae are Culer pipiens pallens, a normal colony fed indoor. About 5 mg compound to be tested is weighed and loaded into a penicillin vial, 5 mL acetone (or an appropriate solvent) is added into the vial, and the vial is oscillated to dissolve the compound; thus, 1,000 ppm mother liquid is obtained. 1 mL mother liquid is weighed and added into a 100 mL beaker filled with 89 mL water, 10 mosquito larvae in the early stage of the 4th instar together with 10 mL feeding solution are poured into the beaker; thus, the concentration of the pesticide solution is 10 ppm (the pesticide solutions with other concentrations are attained by diluting the mother liquid by corresponding times). […] Water solution that contains 0.5 mL test solvent is used as a blank sample.

[5] = system: bean aphides (Aphis laburni Kaltenbach); assay: Test of insecticidal activity against aphides (leaf immersion, checked after 96 h); conditions: for insecticidal activity against aphides compared with pymetrozine: 5 mg/kg; for mortality at 5 mg/kg / mortality at 10 mg/kg / mortality at 100 mg/kg / mortality at 600 mg/kg: Aphis, 96 h, read-out: Mortalities (%) against aphides
Cotton bollworms = assay: Test of insecticidal activity against cotton bollworms (pesticide mixed into feedstuff); conditions: read-out: Mortalities (%) Cotton bollworms
Protocol: Method of testing against cotton bollworms: the pesticide is mixed into the feedstuff, i.e., 3 mL prepared solution is added into about 27 g freshly prepared feedstuff; thus, required concentration is obtained by diluting by 10 times.

[6] = 24 h, read-out: Mortalities (%) against mosquito larvae

Structure (SMILES)	inhibition of growth at 50 mg/kg (Cucumber fusarium wilt) [%]	inhibition of growth at 50 mg/kg [1] [%]	inhibition at 50 mg/kg (Tomato early blight) [%]	inhibition at 50 mg/kg (Wheat head blight) [%]	inhibition at 50 mg/kg (Rice bakanae disease) [%]	inhibition of growth at 50 mg/kg (Sclerotinia rot of colza) [%]	inhibition at 50 mg/kg (Apple ring rot) [%]	inhibition of growth at 50 mg/kg [2] [%]	inhibition at 50 mg/kg (Wheat sheath blight) [%]	inhibition at 50 mg/kg [3] [%]	inhibition at 50 mg/kg (Watermelon anthracnose) [%]	inhibition of growth at 50 mg/kg (Potato late blight) [%]	inhibition at 50 mg/kg (Rice sheath blight) [%]	Mortalities (%) Armyworms (Armyworms; 600 mg/kg) [%]	mortality at 600 mg/kg (Maize borers) [%]	mortality at 2 mg/kg [4, 6] [%]	mortality at 5 mg/kg [4, 6] [%]	mortality at 10 mg/kg [4, 6] [%]	mortality at 5 mg/kg [5] [%]	mortality at 10 mg/kg [5] [%]	further results
CC1=NNC(=O)N(NS(=O)(=O)c2cccc(F)c2)C1 [Ia-17, 3-fluoro-N-(6-methyl-3-oxo-2,3-dihydro-1,2,4-triazin-4(5H)-yl)-benzenesulfonamide]	5.9	16	13.4	35.1	13.8	21	10.8	13.9	14.3	0	8.2	3.1	20.9	5	10	60	100	100	35	85	insecticidal activity against aphides compared with pymetrozine [5]: equivalent to the insecticidal activity of pymetrozine; mortality at 100 mg/kg [5]: 100%; mortality at 600 mg/kg [5]: 100%; mortality at 600 mg/kg (Cotton bollworms): 5%
CC1=NNC(=O)N(NS(=O)(=O)c2ccc(F)cc2)C1 [Ia-18, 4-fluoro-N-(6-methyl-3-oxo-2,3-dihydro-1,2,4-triazin-4(5H)-yl)-benzenesulfonamide]	14.7	12	11.9	2.7	20.7	21	8.1	5.6	4.3	3.1	14.7	18.7	22.1	50	25	40	100	100	45	100	insecticidal activity against aphides compared with pymetrozine [5]: equivalent to the insecticidal activity of pymetrozine; mortality at 100 mg/kg [5]: 100%; mortality at 600 mg/kg [5]: 100%; mortality at 600 mg/kg (Cotton bollworms): 0%
CC1=NNC(=O)N(NS(=O)(=O)c2ccc(F)cc2F)C1 [Ia-19, 2,4-difluoro-N-(6-methyl-3-oxo-2,3-dihydro-1,2,4-triazin-4(5H)-yl)-benzenesulfonamide]	11.8	12	19.4	5.4	17.2	15.8	24.3	5.6	0	18.7	16.4	25	11.6	25	20	100	100	100	25	85	mortality at 1 mg/kg [4, 6]: 60%; insecticidal activity against mosquito larvae [4]: relatively high insecticidal activity; insecticidal activity against aphides compared with pymetrozine [5]: equivalent to the insecticidal activity of pymetrozine; mortality at 100 mg/kg [5]: 100%; mortality at 600 mg/kg [5]: 100%; mortality at 600 mg/kg (Cotton bollworms): 20%
CC1=NNC(=O)N(NS(=O)(=O)c2ccc(F)c(F)c2F)C1 [Ia-20, 2,3,4-trifluoro-N-(6-methyl-3-oxo-2,3-dihydro-1,2,4-triazin-4(5H)-yl)-benzenesulfonamide]	0	12	16.4	5.4	10.3	15.8	4.1	0	17.4	3.1	13.1	18.7	9.3	65	50	20	100	100	10	70	mortality at 100 mg/kg [5]: 100%; mortality at 600 mg/kg [5]: 100%; mortality at 600 mg/kg (Cotton bollworms): 20%
CC1=NNC(=O)N(NS(=O)(=O)c2ccc(Cl)cc2)C1 [Ia-21, 4-chloro-N-(6-methyl-3-oxo-2,3-dihydro-1,2,4-triazin-4(5H)-yl)-benzenesulfonamide]	5.9	12	6	16.2	24.1	26.3	8.1	25	14.3	15.6	24.6	18.7	11.6	75	60	40	100	100	35	85	insecticidal activity against aphides compared with pymetrozine [5]: equivalent to the insecticidal activity of pymetrozine; mortality at 100 mg/kg [5]: 100%; mortality at 600 mg/kg [5]: 100%; mortality at 600 mg/kg (Cotton bollworms): 50%
CC1=NNC(=O)N(NS(=O)(=O)c2ccc(Br)cc2)C1 [Ia-22, 4-bromo-N-(6-methyl-3-oxo-2,3-dihydro-1,2,4-triazin-4(5H)-yl)-benzenesulfonamide]	14.7	16	6	16.2	17.2	21	37.8	27.8	8.7	3.1	56.3	25	23.2	100	100	100	100	100	40	100	Mortalities (%) Armyworms (Armyworms; 200 mg/kg): 70%; mortality at 200 mg/kg (Maize borers): 65%; mortality at 0.5 mg/kg [4, 6]: 40%; mortality at 1 mg/kg [4, 6]: 100%; insecticidal activity against mosquito larvae [4]: relatively high insecticidal activity; insecticidal activity against aphides compared with pymetrozine [5]: equivalent to the insecticidal activity of pymetrozine; mortality at 100 mg/kg [5]: 100%; mortality at 600 mg/kg [5]: 100%; mortality at 200 mg/kg (Cotton bollworms): 80%; mortality at 600 mg/kg (Cotton bollworms): 100%
CC1=NNC(=O)N(NS(=O)(=O)c2ccc(I)cc2)C1 [Ia-23, 4-iodo-N-(6-methyl-3-oxo-2,3-dihydro-1,2,4-triazin-4(5H)-yl)-benzenesulfonamide]	8.8	28	19.4	10.8	20.7	31.6	25.7	38.9	21.7	25	68.4	34.3	29.1	25	20	100	100	100	45	100	mortality at 1 mg/kg [4, 6]: 30%; insecticidal activity against mosquito larvae [4]: relatively high insecticidal activity; insecticidal activity against aphides compared with pymetrozine [5]: equivalent to the insecticidal activity of pymetrozine; mortality at 100 mg/kg [5]: 100%; mortality at 600 mg/kg [5]: 100%; mortality at 600 mg/kg (Cotton bollworms): 30%
